Test results: ChEMBL document CHEMBL1201862, “PubChem BioAssay data set” (2004)
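Step 1: Grow cells in 96-well plates. Step 2: Expose to compound for 48 hours at 5 concentrations. Step 3: Interpolate endpoints linearly; if unreached, use highest concentration. At the GI50, growth is halved.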 Calls of active or inactive are those of the source. No stated cut-off is given here; in the data, active = GI50 up to about 1.1 µM and inactive = higher.

What was measured:
Assay in all cases: inhibition of tumour cell growth, NCI panel, 48 h
U-251 = system: U-251
DMS-114 = system: DMS-114
MOLT-4 = system: MOLT-4
SR = system: SR
A549 = system: A549
IGROV-1 = system: IGROV-1
TK-10 = system: TK-10
NCI-H23 = system: NCI-H23
EKVX = system: EKVX
ACHN = system: ACHN
CCRF-CEM = system: CCRF-CEM
UACC-257 = system: UACC-257
KM12 = system: KM12
HT-29 = system: HT-29
SF-295 = system: SF-295
HOP-92 = system: HOP-92
HOP-62 = system: HOP-62
OVCAR-8 = system: OVCAR-8
SK-MEL-28 = system: SK-MEL-28
OVCAR-5 = system: OVCAR-5
UACC-62 = system: UACC-62
SNB-19 = system: SNB-19
HL-60 = system: HL-60
M14 = system: M14
KM-20L2 = system: KM-20L2
NCI-H522 = system: NCI-H522
A498 = system: A498
UO-31 = system: UO-31
M19-MEL = system: M19-MEL
RXF 631 = system: RXF 631
NCI-H460 = system: NCI-H460
HCT-116 = system: HCT-116
SK-OV-3 = system: SK-OV-3
SNB-78 = system: SNB-78
RXF 393 = system: RXF 393
COLO 205 = system: COLO 205
SNB-75 = system: SNB-75
SW-620 = system: SW-620
Malme-3M = system: Malme-3M
XF498 = system: XF498
CAKI-1 = system: CAKI-1
HCT-15 = system: HCT-15
NCI-H226 = system: NCI-H226
LXFL 529 = system: LXFL 529
SF-539 = system: SF-539
DMS-273 = system: DMS-273
SK-MEL-5 = system: SK-MEL-5
786-0 = system: 786-0
HCC 2998 = system: HCC 2998
RPMI-8226 = system: RPMI-8226
DLD-1 = system: DLD-1
SF-268 = system: SF-268
OVCAR-4 = system: OVCAR-4
LOX IMVI = system: LOX IMVI
OVCAR-3 = system: OVCAR-3
SN12C = system: SN12C
K562 = system: K562

`COc1ccc(C(=O)O)c2c(=O)c3cccnc3[nH]c12` was tested, and the GI50 (U-251) was > 100 µM (inactive), the GI50 (DMS-114) was > 100 µM (inactive) and the GI50 (MOLT-4) was > 100 µM (inactive). The GI50 (SR) was > 100 µM (inactive), the GI50 (A549) was > 100 µM (inactive) and the GI50 (IGROV-1) was > 100 µM (inactive). The GI50 (TK-10) was > 100 µM (inactive), the GI50 (NCI-H23) was > 100 µM (inactive) and the GI50 (EKVX) was > 100 µM (inactive). For the same molecule, the GI50 (ACHN) was > 100 µM (inactive), the GI50 (CCRF-CEM) was > 100 µM (inactive) and the GI50 (UACC-257) was > 100 µM (inactive). For the same molecule, the GI50 (KM12) was > 100 µM (inactive), the GI50 (HT-29) was > 100 µM (inactive) and the GI50 (SF-295) was > 100 µM (inactive). For the same molecule, the GI50 (HOP-92) was > 100 µM (inactive), the GI50 (HOP-62) was > 100 µM (inactive) and the GI50 (OVCAR-8) was > 100 µM (inactive). For the same molecule, the GI50 (SK-MEL-28) was > 100 µM (inactive), the GI50 (OVCAR-5) was > 100 µM (inactive) and the GI50 (UACC-62) was 46.1 µM (inactive). The GI50 (SNB-19) was > 100 µM (inactive), the GI50 (HL-60) was > 100 µM (inactive) and the GI50 (M14) was > 100 µM (inactive). For the same molecule, the GI50 (KM-20L2) was > 100 µM (inactive), the GI50 (NCI-H522) was > 100 µM (inactive) and the GI50 (A498) was > 100 µM (inactive). The GI50 (UO-31) was > 100 µM (inactive), the GI50 (M19-MEL) was > 100 µM (inactive) and the GI50 (RXF 631) was > 100 µM (inactive). The GI50 (NCI-H460) was > 100 µM (inactive), the GI50 (HCT-116) was > 100 µM (inactive) and the GI50 (SK-OV-3) was > 100 µM (inactive). For the same molecule, the GI50 (SNB-78) was > 100 µM (inactive) and the GI50 (RXF 393) was > 100 µM (inactive).

`Cn1cnc([N+](=O)[O-])c1Sc1nc2cccnc2s1` was tested, and the GI50 (COLO 205) was 10.3 µM (inactive), the GI50 (SNB-75) was 25.2 µM (inactive) and the GI50 (U-251) was 24 µM (inactive). The GI50 (SW-620) was 12 µM (inactive), the GI50 (DMS-114) was 14.7 µM (inactive) and the GI50 (MOLT-4) was 10.4 µM (inactive). For the same molecule, the GI50 (Malme-3M) was 10.1 µM (inactive), the GI50 (SR) was 16 µM (inactive) and the GI50 (A549) was 34 µM (inactive). The GI50 (IGROV-1) was 17.5 µM (inactive), the GI50 (XF498) was 21 µM (inactive) and the GI50 (CAKI-1) was 7.93 µM (inactive). For the same molecule, the GI50 (TK-10) was 15.7 µM (inactive), the GI50 (HCT-15) was 11.6 µM and the GI50 (NCI-H23) was > 10 µM (inactive). The GI50 (EKVX) was 17.5 µM (inactive), the GI50 (ACHN) was 24.5 µM (inactive) and the GI50 (NCI-H226) was 17.1 µM (inactive). For the same molecule, the GI50 (UACC-257) was 13.3 µM (inactive), the GI50 (KM12) was 31.6 µM (inactive) and the GI50 (HT-29) was 21.3 µM (inactive). For the same molecule, the GI50 (LXFL 529) was 12.4 µM (inactive), the GI50 (SF-539) was 19.8 µM (inactive) and the GI50 (SF-295) was > 100 µM (inactive). The GI50 (HOP-92) was 18.5 µM (inactive), the GI50 (HOP-62) was > 100 µM (inactive) and the GI50 (DMS-273) was 16.7 µM (inactive). The GI50 (SK-MEL-5) was 19.7 µM (inactive), the GI50 (OVCAR-8) was 16.1 µM (inactive) and the GI50 (SK-MEL-28) was 16.5 µM (inactive). The GI50 (786-0) was 14.5 µM (inactive), the GI50 (OVCAR-5) was 47.2 µM (inactive) and the GI50 (UACC-62) was 17.5 µM (inactive). For the same molecule, the GI50 (SNB-19) was 78.9 µM (inactive), the GI50 (HCC 2998) was 16.7 µM (inactive) and the GI50 (RPMI-8226) was 19.2 µM (inactive). The GI50 (DLD-1) was 12.8 µM (inactive), the GI50 (M14) was 13.7 µM (inactive) and the GI50 (SF-268) was 28.8 µM (inactive). The GI50 (KM-20L2) was 16.9 µM (inactive), the GI50 (OVCAR-4) was 12.1 µM (inactive) and the GI50 (LOX IMVI) was 25.1 µM (inactive). The GI50 (A498) was 40.9 µM (inactive), the GI50 (UO-31) was 17.1 µM (inactive) and the GI50 (M19-MEL) was 14.9 µM (inactive). For the same molecule, the GI50 (RXF 631) was 14.6 µM (inactive), the GI50 (NCI-H460) was 34.1 µM (inactive) and the GI50 (HCT-116) was 16 µM (inactive). The GI50 (SK-OV-3) was 51.3 µM (inactive), the GI50 (SNB-78) was 46.9 µM (inactive) and the GI50 (RXF 393) was 17.8 µM (inactive). The GI50 (OVCAR-3) was 14.6 µM (inactive) and the GI50 (SN12C) was 17.8 µM (inactive).

In the case of `O=C1NC(=O)C2C1N(Cc1ccccc1)C(=O)N2Cc1ccccc1` (stereo not drawn), the GI50 (COLO 205) is reported as > 100 µM (inactive), the GI50 (SNB-75) is reported as > 100 µM (inactive) and the GI50 (U-251) is reported as > 100 µM (inactive). For the same molecule, the GI50 (SW-620) was > 100 µM (inactive), the GI50 (DMS-114) was > 100 µM (inactive) and the GI50 (MOLT-4) was > 100 µM (inactive). The GI50 (Malme-3M) was > 100 µM (inactive), the GI50 (SR) was > 100 µM (inactive) and the GI50 (A549) was > 100 µM (inactive). The GI50 (IGROV-1) was > 100 µM (inactive), the GI50 (XF498) was > 100 µM (inactive) and the GI50 (CAKI-1) was > 100 µM (inactive). The GI50 (TK-10) was > 100 µM (inactive), the GI50 (HCT-15) was over 100 µM and the GI50 (NCI-H23) was > 100 µM (inactive). The GI50 (EKVX) was > 100 µM (inactive), the GI50 (ACHN) was > 100 µM (inactive) and the GI50 (NCI-H226) was > 100 µM (inactive). The GI50 (CCRF-CEM) was > 100 µM (inactive), the GI50 (UACC-257) was > 100 µM (inactive) and the GI50 (KM12) was > 100 µM (inactive). For the same molecule, the GI50 (HT-29) was > 100 µM (inactive), the GI50 (LXFL 529) was > 100 µM (inactive) and the GI50 (SF-539) was > 100 µM (inactive). The GI50 (SF-295) was > 100 µM (inactive), the GI50 (HOP-92) was > 100 µM (inactive) and the GI50 (HOP-62) was > 100 µM (inactive). The GI50 (SK-MEL-5) was > 100 µM (inactive), the GI50 (SK-MEL-28) was > 100 µM (inactive) and the GI50 (K562) was > 100 µM (inactive). The GI50 (786-0) was > 100 µM (inactive), the GI50 (OVCAR-5) was > 100 µM (inactive) and the GI50 (UACC-62) was > 100 µM (inactive). For the same molecule, the GI50 (SNB-19) was > 100 µM (inactive), the GI50 (HL-60) was > 100 µM (inactive) and the GI50 (HCC 2998) was > 100 µM (inactive). The GI50 (RPMI-8226) was > 100 µM (inactive), the GI50 (DLD-1) was > 100 µM (inactive) and the GI50 (M14) was > 100 µM (inactive). For the same molecule, the GI50 (SF-268) was > 100 µM (inactive), the GI50 (KM-20L2) was > 100 µM (inactive) and the GI50 (OVCAR-4) was > 100 µM (inactive). The GI50 (NCI-H522) was > 100 µM (inactive), the GI50 (LOX IMVI) was > 100 µM (inactive) and the GI50 (A498) was > 100 µM (inactive). For the same molecule, the GI50 (UO-31) was > 100 µM (inactive), the GI50 (M19-MEL) was > 100 µM (inactive) and the GI50 (RXF 631) was > 100 µM (inactive). The GI50 (NCI-H460) was > 100 µM (inactive), the GI50 (HCT-116) was > 100 µM (inactive) and the GI50 (SK-OV-3) was > 100 µM (inactive). For the same molecule, the GI50 (SNB-78) was > 100 µM (inactive), the GI50 (RXF 393) was > 100 µM (inactive) and the GI50 (OVCAR-3) was > 100 µM (inactive). The GI50 (SN12C) was > 100 µM (inactive).
